Where “and” joins values, the source holds several entries; their conditions need not be identical. Equal values may be shown once.
Key:
[1] = 10 mg of dezocine, postoperative patients (n=187); cited from earlier work
[2] = target: recombinant human kappa opioid receptor (Homo sapiens, UniProt P41145); assay: biochemical; details: IC50 of inhibition of agonist-induced G protein activation
[3] = cited from earlier work

Sequence of recombinant human kappa opioid receptor (P41145 whole entry): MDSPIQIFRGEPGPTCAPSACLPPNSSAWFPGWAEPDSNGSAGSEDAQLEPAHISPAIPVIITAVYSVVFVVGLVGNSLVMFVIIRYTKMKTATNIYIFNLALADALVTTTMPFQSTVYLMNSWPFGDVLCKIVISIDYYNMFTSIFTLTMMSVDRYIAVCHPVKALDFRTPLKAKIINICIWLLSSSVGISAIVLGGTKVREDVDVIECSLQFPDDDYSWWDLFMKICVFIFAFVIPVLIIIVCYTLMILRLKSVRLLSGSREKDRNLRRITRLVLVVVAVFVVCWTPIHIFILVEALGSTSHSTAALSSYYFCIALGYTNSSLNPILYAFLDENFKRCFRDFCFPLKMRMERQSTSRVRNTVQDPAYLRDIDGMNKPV

In the case of `C[C@@]12CCCCC[C@@H](Cc3ccc(O)cc31)[C@@H]2N` [dezocine], the “analgesic activity compared with meperidine” value [1] is listed as “same analgesic activity as 50 mg of meperidine”, the IC50 [2] is listed as ~350 nM and ~800 nM and the “decrease of anesthetic requirement” value [3] is listed as “up to 50%”.

Source: PMC3944410 (Anesthesiology, 2014)
